Literature values in patent publication US20150320893A1, “TREATMENT OF LATENT HIV INFECTION” (priority 2012, published 2015).

Tested on: latent virus in harboring cells
Settings: by manipulating the PKC pathway(s) within the cell

Compound	ability to induce latent viral replication
CC(=O)O[C@@]12C[C@@H](C)[C@@]3(O)[C@@H](C=C(CO)C[C@]4(O)C(=O)C(C)=C[C@@H]34)[C@@H]1C2(C)C [Prostratin]	induce latent viral replication without encouraging cell cycle progression
CCC/C=C/C=C/C(=O)O[C@H]1/C(=C/C(=O)OC)C[C@H]2C[C@H]([C@@H](C)O)OC(=O)C[C@H](O)C[C@@H]3C[C@H](OC(C)=O)C(C)(C)[C@](O)(C[C@@H]4C/C(=C/C(=O)OC)C[C@H](/C=C/C(C)(C)[C@]1(O)O2)O4)O3 [bryostatin-1, bryostatin 1]	induce latent viral replication without encouraging cell cycle progression
